According to US20120270778A1, “Compositions and Methods for Non-Invasive Treatment of Chronic Complications of Diabetes” (Aegis Therapeutics LLC, priority 2009, published 2012):

Legend:
[1] = Serum insulin and C-peptide levels after nasal administration of combined formulations to rats; format: in vivo
Method: Test System—Sprague Dawley rats, females; 325 grams are used throughout this study. Rats are anesthetized by isoflurane/O2 mixture. To a first and second group of three rats each is administered vehicle containing C-peptide concentration of 1 and 10 mg/mL as described in Example 1 to which is added 0.1% benzallconium chloride as a preservative. To a third and fourth group of 3 rats each is administered vehicle containing C-peptide concentration of 1 and 10 mg/mL as described above to which is added 45 mg/mL methyl-beta-cyclodextrin (Sigma-Aldrich). […]
Analysis Procedure—The serum was frozen at approximately −70° C. in pre-labeled, plastic tubes, and tightly capped, and stored at approximately −70° C. until ready for testing. […]
Solutions prepared as described in Example 3 were administered nasally to rats and tested as described in Example 2 except with the addition that serum human insulin determinations were made using the Human Insulin ELISA Kit™ from Diagnostic Systems Laboratories, Inc, Webster, Tex. The relative molar ratios of insulin to C-peptide in serum for each formulation was calculated by taking the ratio of the insulin concentration to the C-peptide concentration at a fixed time point. In Table 2 below, ratios of the concentrations of insulin and C-peptide for concentrations measured at two time points, namely 20 min. and 40 min. post nasal instillation. […]

[2] = test system: rat model of type 1 diabetes; settings: cited from earlier work
type 1 diabetes = settings: human; cited from earlier work
[3] = test system: diabetes-induced hyperfiltration; settings: in vivo; cited from earlier work
[4] = test system: patients with early-stage type 1 diabetic neuropathy; settings: treatment for 6 months; cited from earlier work
islet cell = settings: cited from earlier work
insulin = insulin (Homo sapiens, UniProt P01308); settings: cited from earlier work
normal and diabetic mice = settings: repressed by insulin; cited from earlier work
[5] = in vivo, inhaled or intranasal; cited from earlier work

Chain of insulin (P01308 25-54 limits assumed, species assumed): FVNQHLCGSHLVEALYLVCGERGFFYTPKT
Chain of insulin (P01308 90-110 limits assumed, species assumed): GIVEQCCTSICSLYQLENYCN

Substance	rate of absorption relative to insulin [1]	effect on neuropathy [2]	effect on diabetes-induced renal and nerve dysfunction (type 1 diabetes)	effect on diabetes-induced hyperfiltration, renal hypertrophy and albuminuria [3]	effect on sensory nerve function [4]	effect on islet cell apoptosis (islet cell)	effect on insulin aggregation (insulin)	antithrombotic effects (normal and diabetic mice)	systemic bioavailability by intranasal route [5]
Proinsulin C-Peptide (55-89), human	slightly, but not significantly, more rapidly than insulin	improves neuropathy	amelioration of diabetes-induced renal and nerve dysfunction	reduce diabetes-induced hyperfiltration, as well as renal hypertrophy and albuminuria	improved sensory nerve function	decreases islet cell apoptosis	elicit disaggregation of insulin	exerts antithrombotic effects	–
salmon calcitonin	–	–	–	–	–	–	–	–	3%
EVARQ	–	–	–	reduce diabetes-induced hyperfiltration, as well as renal hypertrophy and albuminuria	–	–	–	–	–
